What all share (assay): inhibition of tumour cell growth, NCI panel, 48 h
For assay [1], the system named is BT-549 breast.
Assay [2] deals with M14 melanoma.
Assay [3] concerns DU-145 prostate.
Assay [4] concerns MCF7 breast.
Assay [5] relates to IGROV1 ovarian.
The subject of assay [6] is SK-MEL-2 melanoma.
Assay [7] has as its system UO-31 renal.
The subject of assay [8] is SF-539 CNS.
Assay [9] concerns HCC-2998 colon.
For assay [10], the system named is SR leukemia.

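Step 1: Grow cells in 96-well plates. Step 2: Expose to compound for 48 hours at 5 concentrations. Step 3: Interpolate endpoints linearly; if unreached, use highest concentration. At the GI50, growth is halved. TGI: total growth inhibition.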

As to `COc1cc(/C=C2\CCC/C(=C\c3ccc(OCC4CO4)c(OC)c3)C2=O)ccc1OCC1CO1` (stereo not given), the GI50 in [1] was 2.28 µM; in [2], 1.94 µM; in assay [3] it was 3.06 µM; in [4] it was 2.02 µM; in [5], 2.87 µM; in assay [6], 2.43 µM. In addition, the GI50 in assay [7] is 2.51 µM; in assay [8], 2.4 µM; in [9] it was 2.25 µM; in assay [10] it was 2.29 µM. In addition, the TGI in assay [1] came out at 5.3 µM; in assay [2], 3.99 µM; in assay [3], 15.8 µM; in assay [4] it was 7.32 µM; in assay [5], 7.07 µM; in assay [6], 5.37 µM. Besides, the TGI in [7] was 7.94 µM; in assay [8], 6.78 µM; in [9] it was 4.75 µM; in assay [10], > 100 µM.
Regarding `O=C(N/N=C/c1ccc(O)cc1O)c1cccnc1`, the GI50 in [1] was 7.06 µM; in assay [2] it was 2.8 µM; in assay [3] it was 3.45 µM; in [4] it was 1.94 µM; in assay [5] it was 0.776 µM; in assay [6] it was 13.5 µM. For the same compound, the GI50 in assay [7] was 1.46 µM; in [8] it was 2.64 µM; in [9] it was 4.72 µM; in assay [10] it was 3.21 µM. For the same compound, the TGI in [1] was 81.6 µM; in assay [2], 19.6 µM; in assay [3], > 100 µM; in assay [4], 7.5 µM; in assay [5], 23.6 µM; in [6], 60.8 µM. Also, the TGI was > 100 µM in assay [7], 19.3 µM in assay [8], > 100 µM in assay [9] and > 100 µM in [10].
For the compound `CCOC(=O)C1=C(N)Oc2c(sc3c(C)cccc23)C1c1ccc(F)cc1` (stereo not given), the GI50 in assay [1] is 2.07 µM; in assay [2], 0.486 µM; in assay [3], 0.849 µM; in assay [4], 0.47 µM; in assay [5] it was 0.475 µM; in [6], 5.39 µM. Also, the GI50 in [7] is 0.583 µM; in [8] it was 0.36 µM; in assay [9], 1.72 µM; in assay [10] it was 0.47 µM. Besides, the TGI came out at 12.6 µM in [1]; 14.5 µM in assay [2]; 13.5 µM in [3]; 11.4 µM in [4]; 13.5 µM in assay [5]; 24.8 µM in [6]. Moreover, the TGI was 18.3 µM in assay [7], 3.48 µM in assay [8], 8.78 µM in assay [9] and 17.9 µM in assay [10].
Take `O=C(NNc1cnccn1)c1nc2cc(F)ccc2n2cccc12`: the GI50 was 2.24 µM in assay [1]; 0.34 µM in assay [2]; 0.745 µM in assay [3]; 0.336 µM in [4]; 0.503 µM in assay [5]; 1.61 µM in assay [6]. Further, the GI50 is 0.261 µM in assay [7], 0.847 µM in assay [8], 2.88 µM in assay [9] and 0.247 µM in assay [10]. Also, the TGI is > 62.8 µM in assay [1]; 14.5 µM in [2]; > 100 µM in assay [3]; > 100 µM in assay [4]; > 100 µM in [5]; > 100 µM in assay [6]. In addition, the TGI was > 100 µM in [7], > 31.6 µM in assay [8], > 100 µM in assay [9] and > 100 µM in assay [10].
Take `COc1ccc(-c2noc(N)c2-c2cc(OC)c3c(c2)OCO3)cc1`: the GI50 in [1] was 3.01 µM; in assay [2], 1.3 µM; in assay [3], 3.42 µM; in [4], 0.707 µM; in assay [5], 6.8 µM; in [6], 1.51 µM. Besides, the GI50 in assay [7] is 7.39 µM; in [8], 1.76 µM; in [9], 3.68 µM; in assay [10], 0.523 µM. Further, the TGI in assay [1] was 61.9 µM; in [2] it was 7.02 µM; in assay [3] it was > 90.9 µM; in assay [4], > 100 µM; in assay [5], > 100 µM; in assay [6], 6.83 µM. In addition, the TGI in [7] is > 100 µM; in [8] it was 4.91 µM; in assay [9] it was > 33.9 µM; in assay [10], > 51.2 µM.
Turning to `Oc1ccc(Oc2cnc3ccccc3n2)cc1`, the GI50 in assay [1] was 12.3 µM; in assay [2], > 100 µM; in assay [3], > 100 µM; in assay [4], > 100 µM; in assay [5] it was > 100 µM; in assay [6], > 100 µM. The GI50 in assay [7] was 66.6 µM; in assay [8], 77.2 µM; in [9], > 100 µM; in assay [10] it was 78.5 µM. The TGI in [1] is 57.5 µM; in assay [2], > 100 µM; in [3], > 100 µM; in [4], > 100 µM; in assay [5], > 100 µM; in assay [6], > 100 µM. Also, the TGI in assay [7], in [8], in assay [9] and in assay [10] was > 100 µM each time.
As for `Clc1nc(Cl)c2ncn(Cc3ccccc3Cn3cnc4c(Cl)nc(Cl)nc43)c2n1`, the GI50 in [1] is 0.165 µM; in assay [2], 5.13 µM; in assay [3], 1.21 µM; in assay [4], 0.922 µM; in [5], 3.14 µM; in assay [6], 8.96 µM. Also, the GI50 is 1.91 µM in [7], 0.16 µM in assay [8], 1.88 µM in assay [9] and 2.17 µM in assay [10]. Also, the TGI in assay [1] is 1.52 µM; in [2], 10 µM; in assay [3], 2.65 µM; in [4], 4.99 µM; in assay [5], 8.46 µM; in [6], 27.8 µM. The TGI in assay [7] came out at 3.85 µM; in [8], 0.719 µM; in assay [9], 3.56 µM; in assay [10], 5.15 µM.
